The values below come from patent publication US20220313650A1, “METHODS FOR TREATING NEURODEVELOPMENTAL DISORDERS” (The Broad Institute, Inc., priority 2019, published 2022).

“Also recorded” adds a separate entry of the source.

Holding throughout (type): cell-based, mice
Assay [1] relates to thalamo-TRN synapses. Description: Optogenetically evoked EPSCs in patched TRN neurons, thalamo-TRN pathway. The conditions noted are these: patched TRN neurons, LY379268 bath application. On the procedure: For conducting slice electrophysiology analysis, whole-cell patch-clamp recordings were performed using horizontal slices for the rebound bursting assays and angled-coronal thalamocortical slices for the synaptic optogenetics experiments (Agmon et al., 1991). 21-35 day old male C57BL6 mice and Ptchd1 Y/− (knockout) mice were used. Animals were transcardially perfused under isoflurane anesthesia with an ice-cold cutting solution (194 mM Sucrose, 30 mM NaCl, 4.5 mM KCl, 1.2 mM NaH2PO4, 10 mM Glucose, 2 mM MgCl2, 0.2 mM CaCl2, and 26 mM NaHCO3). Mice were then decapitated and the brains were carefully dissected out. Both cerebellum and olfactory bulb were removed from the brain and were placed and glued onto the stage of a Leica Vibratome with the ventral surface down and the pial surface towards the blade. 250 micron thick slices containing the TRN were then collected and recovered in regular artificial cerebrospinal fluid (aCSF; 119 mM NaCl, 2.3 mM KCl, 1 mM NaH2PO4; 11 mM Glucose, 1.3 mM MgCl2, 2.5 mM CaCl2), 26 mM NaHCO3) heated to 32° C. for 10 minutes and then at room temperature for at least 1 hr. All buffers were continuously bubbled with 95% O2/5% C02. Slices were then transferred to a submersion recording chamber where they were perfused with aCSF at a rate of 2 ml/min at room temperature. Patch recording pipettes were pulled using a Flaming/Brown micropipette puller (Sutter Instruments) and Borosilicate glass (KG33, King Precision Glass). The DC resistances were ˜4-6 MΩ. Potassium methanesulfonate based internal solution (140 mM KMeSO3; 10 mM KCl; 10 mM HEPES; 0.1 mM EGTA; 4 mM Mg-ATP; 0.2 mM Na-GTP; 10 mM hosphocreatine) was used. Neurons were visualized using infrared differential interference contrast (IR-DIC) microscopy (Olympus, BX51W1) with an upright microscope digital camera. […]
(§1) After allowing 1-2 weeks for mcherry-dflox.hChR2.EF1.AAV1 expression, acute somatosensory thalamocortical or horizontal brain slices were freshly obtained for in vitro recording and optogenetic stimulation (250 um thick, thalamocortical slices containing TRN from angled-coronal sections; Agmon and Connors, 1991) for optogenetic analysis. In brief, patch clamp recordings in voltage clamp configuration were performed while the Cortico-TRN or Thalamic-TRN pathway was activated by applying a blue LED (400-450 nm) light pulses (Lumen 300-LED Fluorescence Excitation Illumination System). For synaptic stimulation, neurons were held at −70 mV while 0.1-1.5 ms flashes were delivered directly to the recorded cell soma delivered through the 40× water immersion objective. […]

Assay [2] has as its system cortico-TRN synapses. Description: Optogenetically evoked EPSCs in patched TRN neurons, cortico-TRN pathway. On the procedure:
For conducting slice electrophysiology analysis, whole-cell patch-clamp recordings were performed using horizontal slices for the rebound bursting assays and angled-coronal thalamocortical slices for the synaptic optogenetics experiments (Agmon et al., 1991). 21-35 day old male C57BL6 mice and Ptchd1 Y/− (knockout) mice were used. Animals were transcardially perfused under isoflurane anesthesia with an ice-cold cutting solution (194 mM Sucrose, 30 mM NaCl, 4.5 mM KCl, 1.2 mM NaH2PO4, 10 mM Glucose, 2 mM MgCl2, 0.2 mM CaCl2, and 26 mM NaHCO3). Mice were then decapitated and the brains were carefully dissected out. Both cerebellum and olfactory bulb were removed from the brain and were placed and glued onto the stage of a Leica Vibratome with the ventral surface down and the pial surface towards the blade. 250 micron thick slices containing the TRN were then collected and recovered in regular artificial cerebrospinal fluid (aCSF; 119 mM NaCl, 2.3 mM KCl, 1 mM NaH2PO4; 11 mM Glucose, 1.3 mM MgCl2, 2.5 mM CaCl2), 26 mM NaHCO3) heated to 32° C. for 10 minutes and then at room temperature for at least 1 hr. All buffers were continuously bubbled with 95% O2/5% C02. Slices were then transferred to a submersion recording chamber where they were perfused with aCSF at a rate of 2 ml/min at room temperature. Patch recording pipettes were pulled using a Flaming/Brown micropipette puller (Sutter Instruments) and Borosilicate glass (KG33, King Precision Glass). The DC resistances were ˜4-6 MΩ. Potassium methanesulfonate based internal solution (140 mM KMeSO3; 10 mM KCl; 10 mM HEPES; 0.1 mM EGTA; 4 mM Mg-ATP; 0.2 mM Na-GTP; 10 mM hosphocreatine) was used. Neurons were visualized using infrared differential interference contrast (IR-DIC) microscopy (Olympus, BX51W1) with an upright microscope digital camera.
To study the changes in the acute somatosensory thalamocortical or horizontal brain areas, 21-25 days old Nex-Cre or VgluT2-Cre mice were anesthetized with isoflurane while placed in a small animal stereotaxic apparatus (David Kopf Instruments, CA, USA) and were injected bilaterally with 280 nl of mcherry-dflox.hChR2.EF1.AAV1 using a Nanoject (Drummond Scientific, Broomall, Pa.) via glass pipettes with […] diameter tips in somatosensory cortex (S1) and ventrobasal thalamic complex (VB). Coordinates from the bregma for S1: AP −0.7, ML 2.4 and DV 1.2 and for VB: AP −1.6, ML 1.5 and DV 3.5. The pipette was held in the final position for 10 min after injection before withdrawal from the brain. The incision was closed with vetbond and after surgery mice were injected with analgesics (SR-Bupronex 1 mg/kg) every 72 hours or as needed. […]
as §1

Assay [3] has as its system SK channels. Description: SK current recording in TRN neurons. The settings on record: in the presence of LY379268. On the procedure: For conducting slice electrophysiology analysis, whole-cell patch-clamp recordings were performed using horizontal slices for the rebound bursting assays and angled-coronal thalamocortical slices for the synaptic optogenetics experiments (Agmon et al., 1991). 21-35 day old male C57BL6 mice and Ptchd1 Y/− (knockout) mice were used. Animals were transcardially perfused under isoflurane anesthesia with an ice-cold cutting solution (194 mM Sucrose, 30 mM NaCl, 4.5 mM KCl, 1.2 mM NaH2PO4, 10 mM Glucose, 2 mM MgCl2, 0.2 mM CaCl2, and 26 mM NaHCO3). Mice were then decapitated and the brains were carefully dissected out. Both cerebellum and olfactory bulb were removed from the brain and were placed and glued onto the stage of a Leica Vibratome with the ventral surface down and the pial surface towards the blade. […]
The channel conductance of SK channels and low-threshold T-type Ca2+ channels at different holding membrane potentials ranging from −80 mV to −50 mV in the presence or absence of SK channel blockers was evaluated in order to further determine how the activation of mGluR2/3 in TRN neurons enhanced the rebound bursting.

In the case of `N[C@@]1(C(=O)O)COC2C(C(=O)O)C21` (stereo in doubt) [LY379268, (1R,4R,5S,6R)-4-Amino-2-oxabicyclo[3.1.0] hexane-4,6-dicarboxylic acid], in assay [1], the “thalamo-TRN evoked EPSCs” value is “did not affect the thalamo-TRN evoked EPSCs”. The “paired-pulse ratio (PPR)” value in assay [2] (cortico-TRN synapses, before vs after bath application) was “significantly changed as well as the paired-pulse ratio; also recorded: significant changes in the size of paired-pulse ratio (PPR)”. Further, the “amplitude of optogenetic evoked EPSCs” value in assay [2] (cortico-TRN, 20 Hz, LY379268 1 μM bath application) is listed as “amplitude was significantly changed”. Besides, the “current mediated by SK (max outward currents, SK channel conductance)” value in assay [3] was “significantly increased”.
